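48-hour exposure; five concentrations; linearly interpolated endpoints. GI50 = concentration required for 50% inhibition of growth.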 Active and inactive are the calls of the source. Cut-off read from the data, not from the text of the source: active = GI50 up to about 1.1 µM and inactive = higher.
Legend:
Assay in all cases: NCI tumour cell line growth inhibition, 48 h
CAKI-1 = tested on: CAKI-1
OVCAR-5 = tested on: OVCAR-5
LOX IMVI = tested on: LOX IMVI
RPMI-8226 = tested on: RPMI-8226
MDA-MB-231 = tested on: MDA-MB-231
OVCAR-3 = tested on: OVCAR-3
PC-3 = tested on: PC-3
SNB-19 = tested on: SNB-19
TK-10 = tested on: TK-10
UO-31 = tested on: UO-31
DU-145 = tested on: DU-145
BT-549 = tested on: BT-549
UACC-257 = tested on: UACC-257
SF-268 = tested on: SF-268
ACHN = tested on: ACHN
786-0 = tested on: 786-0
T47D = tested on: T47D
A549 = tested on: A549
HT-29 = tested on: HT-29
HL-60 = tested on: HL-60
CCRF-CEM = tested on: CCRF-CEM
EKVX = tested on: EKVX
SF-539 = tested on: SF-539
U-251 = tested on: U-251
MDA-N = tested on: MDA-N
HOP-62 = tested on: HOP-62
SK-MEL-5 = tested on: SK-MEL-5
OVCAR-8 = tested on: OVCAR-8
NCI-H522 = tested on: NCI-H522
M14 = tested on: M14
NCI/ADR-RES = tested on: NCI/ADR-RES
OVCAR-4 = tested on: OVCAR-4
NCI-H23 = tested on: NCI-H23
HCC 2998 = tested on: HCC 2998
HCT-116 = tested on: HCT-116
SK-MEL-2 = tested on: SK-MEL-2
K562 = tested on: K562
MDA-MB-435 = tested on: MDA-MB-435
UACC-62 = tested on: UACC-62
NCI-H226 = tested on: NCI-H226
SK-OV-3 = tested on: SK-OV-3
SN12C = tested on: SN12C
A498 = tested on: A498
SW-620 = tested on: SW-620
IGROV-1 = tested on: IGROV-1
SR = tested on: SR
KM12 = tested on: KM12
HCT-15 = tested on: HCT-15
SK-MEL-28 = tested on: SK-MEL-28
MCF7 = tested on: MCF7
COLO 205 = tested on: COLO 205
MOLT-4 = tested on: MOLT-4
SF-295 = tested on: SF-295
RXF 393 = tested on: RXF 393
SNB-75 = tested on: SNB-75
NCI-H460 = tested on: NCI-H460
Malme-3M = tested on: Malme-3M
HOP-92 = tested on: HOP-92

Structure (SMILES): CSc1ncnc2c1cnn2Cc1cnnn1COCC(O)CO (stereo not given)
- GI50 (CAKI-1): > 100 µM (inactive)
- GI50 (OVCAR-5): > 100 µM (inactive)
- GI50 (LOX IMVI): > 100 µM (inactive)
- GI50 (RPMI-8226): > 100 µM (inactive)
- GI50 (MDA-MB-231): > 100 µM (inactive)
- GI50 (OVCAR-3): > 100 µM (inactive)
- GI50 (PC-3): > 100 µM (inactive)
- GI50 (SNB-19): > 100 µM (inactive)
- GI50 (TK-10): > 100 µM (inactive)
- GI50 (UO-31): > 100 µM (inactive)
- GI50 (DU-145): > 100 µM (inactive)
- GI50 (BT-549): > 100 µM (inactive)
- GI50 (UACC-257): > 100 µM (inactive)
- GI50 (SF-268): 13.8 µM (inactive)
- GI50 (ACHN): > 100 µM (inactive)
- GI50 (786-0): > 100 µM (inactive)
- GI50 (T47D): > 100 µM (inactive)
- GI50 (A549): > 100 µM (inactive)
- GI50 (HT-29): > 100 µM (inactive)
- GI50 (HL-60): > 100 µM (inactive)
- GI50 (CCRF-CEM): > 100 µM (inactive)
- GI50 (EKVX): > 100 µM (inactive)
- GI50 (SF-539): > 100 µM (inactive)
- GI50 (U-251): > 100 µM (inactive)
- GI50 (MDA-N): > 100 µM (inactive)
- GI50 (HOP-62): > 100 µM (inactive)
- GI50 (SK-MEL-5): > 100 µM (inactive)
- GI50 (OVCAR-8): > 100 µM (inactive)
- GI50 (NCI-H522): 11.1 µM (inactive)
- GI50 (M14): > 100 µM (inactive)
- GI50 (NCI/ADR-RES): > 100 µM (inactive)
- GI50 (OVCAR-4): > 100 µM (inactive)
- GI50 (NCI-H23): > 100 µM (inactive)
- GI50 (HCC 2998): > 100 µM (inactive)
- GI50 (HCT-116): > 100 µM (inactive)
- GI50 (SK-MEL-2): > 100 µM (inactive)
- GI50 (K562): > 100 µM (inactive)
- GI50 (MDA-MB-435): > 100 µM (inactive)
- GI50 (UACC-62): > 100 µM (inactive)
- GI50 (NCI-H226): > 100 µM (inactive)
- GI50 (SK-OV-3): > 100 µM (inactive)
- GI50 (SN12C): > 100 µM (inactive)
- GI50 (A498): > 100 µM (inactive)
- GI50 (SW-620): > 100 µM (inactive)
- GI50 (IGROV-1): > 100 µM (inactive)
- GI50 (SR): > 100 µM (inactive)
- GI50 (KM12): > 100 µM (inactive)
- GI50 (HCT-15): > 100 µM
- GI50 (SK-MEL-28): > 100 µM (inactive)
- GI50 (MCF7): > 100 µM (inactive)
- GI50 (COLO 205): > 100 µM (inactive)
- GI50 (MOLT-4): > 100 µM (inactive)
- GI50 (SF-295): > 100 µM (inactive)

Structure (SMILES): COc1cc(/C=C2\C(=O)N(c3cc(Cl)ccc3Cl)C(c3ccccc3)S2(=O)=O)cc(OC)c1OC (stereo not given)
- GI50 (CAKI-1): > 100 µM (inactive)
- GI50 (OVCAR-5): 38.5 µM (inactive)
- GI50 (LOX IMVI): 55.6 µM (inactive)
- GI50 (RPMI-8226): 45.4 µM (inactive)
- GI50 (MDA-MB-231): > 100 µM (inactive)
- GI50 (RXF 393): > 100 µM (inactive)
- GI50 (OVCAR-3): 34.8 µM (inactive)
- GI50 (PC-3): 55.8 µM (inactive)
- GI50 (SNB-19): > 100 µM (inactive)
- GI50 (TK-10): > 100 µM (inactive)
- GI50 (UO-31): 46.8 µM (inactive)
- GI50 (DU-145): > 100 µM (inactive)
- GI50 (BT-549): 83.2 µM (inactive)
- GI50 (UACC-257): > 100 µM (inactive)
- GI50 (SNB-75): 61.1 µM (inactive)
- GI50 (ACHN): > 100 µM (inactive)
- GI50 (NCI-H460): > 100 µM (inactive)
- GI50 (786-0): > 100 µM (inactive)
- GI50 (T47D): 26.1 µM (inactive)
- GI50 (A549): > 100 µM (inactive)
- GI50 (HT-29): 81.5 µM (inactive)
- GI50 (HL-60): 19.2 µM (inactive)
- GI50 (CCRF-CEM): 42.9 µM (inactive)
- GI50 (EKVX): 29.3 µM (inactive)
- GI50 (Malme-3M): 42.9 µM (inactive)
- GI50 (SF-539): 90.6 µM (inactive)
- GI50 (U-251): 86.1 µM (inactive)
- GI50 (MDA-N): 22.2 µM (inactive)
- GI50 (HOP-62): > 100 µM (inactive)
- GI50 (SK-MEL-5): 57.4 µM (inactive)
- GI50 (OVCAR-8): > 100 µM (inactive)
- GI50 (NCI-H522): 29.5 µM (inactive)
- GI50 (M14): 40.6 µM (inactive)
- GI50 (NCI/ADR-RES): 34.1 µM (inactive)
- GI50 (OVCAR-4): 62.1 µM (inactive)
- GI50 (NCI-H23): 96.4 µM (inactive)
- GI50 (HCC 2998): > 100 µM (inactive)
- GI50 (HCT-116): 38.5 µM (inactive)
- GI50 (SK-MEL-2): > 100 µM (inactive)
- GI50 (K562): 31 µM (inactive)
- GI50 (MDA-MB-435): 27.7 µM (inactive)
- GI50 (UACC-62): 37.2 µM (inactive)
- GI50 (NCI-H226): 25.4 µM (inactive)
- GI50 (HOP-92): 45.1 µM (inactive)
- GI50 (SK-OV-3): > 100 µM (inactive)
- GI50 (SN12C): 62.1 µM (inactive)
- GI50 (A498): > 100 µM (inactive)
- GI50 (SW-620): 33.7 µM (inactive)
- GI50 (IGROV-1): 28.3 µM (inactive)
- GI50 (SR): 31.6 µM (inactive)
- GI50 (KM12): 36.6 µM (inactive)
- GI50 (HCT-15): 39.4 µM
- GI50 (SK-MEL-28): 63.8 µM (inactive)
- GI50 (MCF7): 27 µM (inactive)
- GI50 (COLO 205): > 100 µM (inactive)
- GI50 (MOLT-4): 25.1 µM (inactive)
- GI50 (SF-295): 51.5 µM (inactive)

Structure (SMILES): Cc1cc(C#N)c(Nc2c(C)cccc2[N+](=O)[O-])s1
- GI50 (CAKI-1): 36.9 µM (inactive)
- GI50 (OVCAR-5): 12.4 µM (inactive)
- GI50 (RPMI-8226): > 100 µM (inactive)
- GI50 (MDA-MB-231): 24.7 µM (inactive)
- GI50 (RXF 393): 16.4 µM (inactive)
- GI50 (OVCAR-3): 29.5 µM (inactive)
- GI50 (PC-3): 17.3 µM (inactive)
- GI50 (SNB-19): 68.2 µM (inactive)
- GI50 (UO-31): > 100 µM (inactive)
- GI50 (DU-145): 36.2 µM (inactive)
- GI50 (BT-549): 24.3 µM (inactive)
- GI50 (UACC-257): 39.3 µM (inactive)
- GI50 (SNB-75): 21.5 µM (inactive)
- GI50 (SF-268): 28 µM (inactive)
- GI50 (ACHN): 49.7 µM (inactive)
- GI50 (NCI-H460): 76.4 µM (inactive)
- GI50 (786-0): 26.9 µM (inactive)
- GI50 (T47D): 12.4 µM (inactive)
- GI50 (A549): 46.3 µM (inactive)
- GI50 (CCRF-CEM): 16.6 µM (inactive)
- GI50 (EKVX): 27.3 µM (inactive)
- GI50 (Malme-3M): 40.2 µM (inactive)
- GI50 (SF-539): 43.2 µM (inactive)
- GI50 (U-251): 35.7 µM (inactive)
- GI50 (MDA-N): 97.7 µM (inactive)
- GI50 (HOP-62): 25.4 µM (inactive)
- GI50 (OVCAR-8): 42.9 µM (inactive)
- GI50 (NCI-H522): 30.4 µM (inactive)
- GI50 (M14): > 100 µM (inactive)
- GI50 (NCI/ADR-RES): 25.4 µM (inactive)
- GI50 (OVCAR-4): 57.4 µM (inactive)
- GI50 (NCI-H23): 39.7 µM (inactive)
- GI50 (HCC 2998): 87.7 µM (inactive)
- GI50 (HCT-116): 73.8 µM (inactive)
- GI50 (K562): > 100 µM (inactive)
- GI50 (MDA-MB-435): 61 µM (inactive)
- GI50 (UACC-62): 37.9 µM (inactive)
- GI50 (NCI-H226): > 100 µM (inactive)
- GI50 (HOP-92): 24.3 µM (inactive)
- GI50 (SK-OV-3): 35.4 µM (inactive)
- GI50 (SN12C): > 100 µM (inactive)
- GI50 (A498): 66.7 µM (inactive)
- GI50 (SW-620): > 100 µM (inactive)
- GI50 (SR): 49.7 µM (inactive)
- GI50 (KM12): > 100 µM (inactive)
- GI50 (HCT-15): 50 µM
- GI50 (SK-MEL-28): 76.9 µM (inactive)
- GI50 (COLO 205): > 100 µM (inactive)
- GI50 (MOLT-4): 92 µM (inactive)
- GI50 (SF-295): 28.8 µM (inactive)
